Earlier results, collected in paper PMC11949389 (Polish Journal of Microbiology, 2025).
pIC50: −log10 of the molar value. ≈ marks a conversion by molar mass, not a printed value. Read-outs that look alike come from different tables or passages of the source.

Assays:
[1] = test system: Vancomycin-sensitive Enterococcus (VSE)
[2] = test system: Vancomycin-resistant Enterococcus (VRE); settings: Vancomycin-resistant Enterococcus (VRE); ref Owen et al. 2019
[3] = test system: Staphylococcus aureus
[4] = test system: Methicillin-susceptible Staphylococcus aureus; settings: ref Owen et al. 2019
[5] = test system: Methicillin-resistant Staphylococcus aureus; settings: Methicillin-resistant Staphylococcus aureus; ref Owen et al. 2019
[6] = test system: Mupirocin-susceptible Staphylococcus aureus; settings: ref Kwiatkowski et al. 2019
[7] = test system: Mupirocin-resistant Staphylococcus aureus; settings: ref Kwiatkowski et al. 2019
[8] = test system: Staphylococcus pseudintermedius
[9] = test system: β-haemolytic Streptococcus spp.; settings: ref Sim et al. 2019
[10] = test system: Streptococcus suis; settings: ref de Aguiar et al. 2019
[11] = test system: Acinetobacter baumannii; settings: combined with ciprofloxacin, ref Aleksic Sabo et al. (2021)
[12] = test system: Campylobacter jejuni
[13] = test system: Klebsiella pneumoniae; settings: ref Sayout et al. 2020, de Souza et al. 2021, Kwiatkowski et al. 2022
[14] = test system: Malassezia pachydermatis; settings: ref Schlemmer et al. 2019, Sim et al. 2019
[15] = test system: Proteus mirabilis; settings: ref Sim et al. 2019
[16] = test system: Pseudomonas sp.; settings: ref Caballero Gómez et al. 2022
[17] = test system: Ciprofloxacin-resistant Pseudomonas aeruginosa; settings: Ciprofloxacin-resistant Pseudomonas aeruginosa; ref Owen et al. 2019
[18] = test system: Pseudomonas aeruginosa; settings: Pseudomonas aeruginosa; ref Owen et al. 2019; Sim et al. 2019; Noumi et al. 2023
[19] = test system: Candida auris
[20] = test system: Candida glabrata
[21] = test system: Candida krusei; settings: Candida krusei; ref Sharifzadeh et al. 2019; Iraji et al. 2020; Biernasiuk et al. 2022; Stringaro et al. 2022
[22] = test system: Candida tropicalis; settings: Candida tropicalis; ref Iraji et al. 2020; Stringaro et al. 2022
[23] = test system: Salmonella Thyphimurium; settings: ref Giovagnoni et al. 2020
[24] = test system: Candida albicans; settings: ref Shaban et al. 2020
[25] = test system: Candida auris; remark: listed apart in the source
[26] = test system: staphylococcal isolates; settings: ref Sim et al. 2019
[27] = test system: carbapenem and polymyxin-resistant Klebsiella pneumoniae; settings: murine models, compared to polymyxin B treatment; ref de Souza et al. (2021)
[28] = test system: various microorganisms; settings: across various microorganisms; ref Owen et al. (2019)
[29] = test system: Vibrio anguillarum, and Vibrio harveyi; settings: ref Rossi et al. (2021)
[30] = test system: Salmonella Typhimurium; settings: ref Giovagnoni et al. (2020)
[31] = test system: amphotericin B-resistant C. albicans; settings: varying among Candida isolates; ref Touil et al. (2020)
[32] = test system: bacteria co-isolated with C. albicans; settings: ref Touil et al. (2020)
[33] = test system: HSV-2; settings: HSV-2, 1 mmol/l; ref Wang et al. (2020a)
[34] = test system: HIV-1; settings: ref Mediouni et al. (2020)
[35] = test system: C. albicans and co-isolated bacteria; settings: carvacrol combined with cuminaldehyde; ref Touil et al. (2020)
[36] = test system: carbapenem-resistant Klebsiella pneumoniae (CRKP) strains; settings: with meropenem, ref Köse (2022)
[37] = test system: Mycobacterium biofilms, including Mycobacterium abscessus and Mycobacterium fortuitum; settings: even at sub-MIC concentrations; ref Marini et al. (2019)
[38] = Candida auris, ref Shaban et al. 2020

SMILES: Cc1ccc(C(C)C)cc1O [Carvacrol]
- MIC/Sensitivity ([1]; Vancomycin-sensitive Enterococcus (VSE), ref Owen et al. 2019): 0.59337 mg/mL (≈ 3.95 mM)
- reduction in vancomycin’s MIC ([1]; binary combinations with vancomycin, VSE, ref Owen et al. (2020)): four to eight-fold reduction
- MIC/Sensitivity [2]: 593.369 mg/mL (≈ 3950 mM)
- MIC ([3]; S. aureus, ref Sousa Silveira et al. (2020)): 0.256 mg/mL (≈ 1.7 mM)
- MIC/Sensitivity ([3]; Staphylococcus aureus, ref Kwiatkowski et al. 2020, Sayout et al. 2020, Sousa Silveira et al. 2020, Macêdo et al. 2022, Noumi et al. 2023, Sharma et al. 2023): 0.256 to 3.2 mg/mL
- MIC/Sensitivity [4]: 297.4356 mg/mL (≈ 1980 mM)
- MIC/Sensitivity [5]: 148.7178 mg/mL (≈ 990 mM)
- MIC/Sensitivity [6]: 0.95 mg/mL (≈ 6.32 mM)
- MIC/Sensitivity [7]: 0.48 mg/mL (≈ 3.2 mM)
- MIC90 ([8]; S. pseudintermedius, ref Sim et al. (2019)): 0.146 mg/mL (≈ 0.972 mM)
- MIC/Sensitivity ([8]; Staphylococcus pseudintermedius, ref Sim et al. 2019): 0.146 to 0.292 mg/mL
- MIC/Sensitivity ([9]; β-haemolytic Streptococcus spp.): 0.146 to 0.292 mg/mL
- MIC90 ([9]; β-hemolytic Streptococcus): 0.292 to 0.4 mg/mL
- MIC/Sensitivity [10]: 0.15625 mg/mL (≈ 1.04 mM)
- FICI [11]: 0.25–0.32
- MIC/Sensitivity ([12]; Campylobacter jejuni, ref Šimunović et al. 2020): 0.03125 mg/mL (≈ 0.208 mM)
- MIC ([12]; ref Šimunović et al. (2020)): 0.03125 mg/mL (≈ 0.208 mM)
- MIC/Sensitivity [13]: 0.13 to 1.91 mg/mL
- MIC/Sensitivity [14]: 0.01 to 0.585 mg/mL
- MIC/Sensitivity [15]: 0.146 to 0.292 mg/mL
- MIC/Sensitivity [16]: 0.1 to 0.4 mg/mL
- MIC/Sensitivity [17]: 4749.9564 mg/mL (≈ 31600 mM)
- MIC/Sensitivity [18]: 0.585 to 1.12 mg/mL
- median MIC ([19]; C. auris, ref Shaban et al. (2020)): 0.125 mg/mL
- MIC [19, 38]: 0.125 mg/mL (≈ 0.832 mM)
- MIC/Sensitivity [19, 38]: 0.125 mg/mL (≈ 0.832 mM)
- MIC/Sensitivity ([20]; Candida glabrata, ref Sharifzadeh et al. 2019, Iraji et al. 2020, Biernasiuk et al. 2022, Stringaro et al. 2022): 0.0625 to 0.195 mg/mL
- FICI ([20]; with voriconazole, C. glabrata, ref Sharifzadeh et al. (2019)): 0.412–0.625
- MIC/Sensitivity [21]: 0.0875 to 0.125 mg/mL
- MIC/Sensitivity [22]: 0.0975 mg/mL (≈ 0.649 mM)
- Mechanisms of action [23]: • Anti-inflammatory effects • Anti-oxidant properties • Enhanced epithelial barrier integrity • Reduction of bacterial translocation • Improved transepithelial electrical resistance • Inhibited bacterial growth
- Mechanisms of action [24]: • Reduced proteinase production
- Mechanisms of action ([25]; ref Ismail et al. 2022): • Induced oxidative stress • Increased CAT, SOD and GPx enzyme activity • Decreased GR and GST enzyme activity • Caused membrane disintegration
- Mechanisms of action ([25]; ref Shaban et al. 2020): • Reduced proteinase production and host cell adherence
- MIC90 [26]: 0.146 to 0.2 mg/mL
- bacterial counts in infections [27]: reduced bacterial counts
- survival [27]: significantly improved survival
- MIC [28]: 990 to 15810 µM
- MIC [29]: 940 to 7500 µM
- MIC [30]: 1870 µM (≈ 281 µg/mL)
- MIC [31]: 250–1,000 μg/ml
- MIC [32]: 1,000 μg/ml
- virus release rate [33]: 33.67%
- pIC50 ([34]; HIV-1): 4.80
- reduction of viral infectivity ([34]; pretreatment of HIV): 60.6%
- MIC in combination [35]: 0.06 to 0.25 mg/mL
- FICI ([36]; checkerboard assays, CRKP): 0.5
- CRKP strains with synergy [36]: 8 of 25
- effect on biofilms [37]: inhibited biofilm formation and disrupted pre-formed biofilms
